Assay results reported in DBAASP.
In brackets after ≈: the same amount, converted by molar mass.

How the values were obtained:
Assay in all cases: ≥ marks a high value that may be exact or a test limit, other limits are often not marked, values filed in µg/mL are converted to µM
[1] = system: Xanthomonas campestris pv. Vesicatoria 2133-2
[2] = system: Pseudomonas syringae pv. syringae EPS 94
[3] = system: Erwinia amylovora PMV 6076
[4] = system: Pseudomonas aeruginosa ATCC 27853
[5] = system: Staphylococcus aureus ATCC 25923
[6] = system: Listeria monocytogenes ATCC 35152
[7] = system: Escherichia coli ATCC 25922
[8] = system: Klebsiella pneumoniae ATCC 13883
[9] = system: Staphylococcus aureus BCRC 10780
[10] = system: Streptococcus pneumoniae BCRC 10794
Candida parapsilosis = system: Candida parapsilosis
Candida albicans 01U = system: Candida albicans 01U
[11] = system: Trichophyton mentagrophytes
[12] = system: Cryptococcus neoformans L26
Trichophyton rubrum = system: Trichophyton rubrum
[13] = system: Cryptococcus neoformans L30
Candida albicans 38U = system: Candida albicans 38U
[14] = system: Pseudomonas aeruginosa CGMCC 1.860
[15] = system: Enterobacter cloacae CGMCC 1.58
[16] = system: Klebsiella pneumoniae subsp. pneumoniae CGMCC 1.176
Bacillus cereus AS1.126 = system: Bacillus cereus AS1.126
[17] = system: Staphylococcus epidermidis CICC 23664
Escherichia coli AS1.349 = system: Escherichia coli AS1.349
[18] = system: Staphylococcus aureus AS1.72
[19] = system: Staphylococcus epidermidis
[20] = system: Pseudomonas aeruginosa 0108
[21] = system: Proteus mirabilis CICC 22931
[22] = system: Enterococcus faecium CGMCC 1.2334
[23] = system: Enterococcus faecalis CGMCC 1.595
[24] = system: Xanthomonas axonopodis pv. glycines ISBF 327
[25] = system: Staphylococcus aureus ATCC 29313
[26] = system: Staphylococcus aureus ATCC 25023
[27] = system: Listeria monocytogenes ATCC 7644
[28] = system: Bacillus cereus ATCC 14579
[29] = system: Staphylococcus aureus ATCC 33591
[30] = system: Bacillus subtilis ATCC 23858
[31] = system: Salmonella enterica subsp. enterica serovar Typhimurium ATCC 14028
[32] = system: Streptococcus pyogenes ATCC 19615
Bacillus subtilis = system: Bacillus subtilis
[33] = system: Enterococcus faecalis ATCC 29212
Escherichia coli = system: Escherichia coli

SMILES: CC[C@H](C)[C@H](NC(=O)[C@H](CCCCN)NC(=O)[C@H](CCCCN)NC(=O)[C@H](Cc1ccccc1)NC(=O)[C@H](CC(C)C)NC(=O)[C@H](CCCCN)NC(=O)[C@H](CCCCN)NC(=O)[C@H](C)NC(=O)[C@@H]1CCCN1C(=O)CNC(=O)[C@H](C)NC(=O)[C@H](CC(C)C)NC(=O)[C@H](Cc1ccc(O)cc1)NC(=O)[C@H](CCCCN)NC(=O)[C@H](CC(C)C)NC(=O)[C@@H](NC(=O)[C@H](CCCCN)NC(=O)[C@H](CCCCN)NC(=O)[C@H](Cc1ccccc1)NC(=O)[C@H](CC(C)C)NC(=O)[C@H](CCCCN)NC(=O)[C@H](CCCCN)NC(=O)[C@@H](N)CO)[C@@H](C)CC)C(=O)N[C@@H](CC(C)C)C(=O)N[C@@H](CCCCN)C(=O)N[C@@H](Cc1ccc(O)cc1)C(=O)N[C@@H](CC(C)C)C(=O)O [SKKLFKKILKYLAGPAKKLFKKILKYL]
- MIC [1]: 14.1 µM (≈ 45.4 µg/mL)
- MIC [2]: 8.66 µM (≈ 27.8 µg/mL)
- MIC [3]: 14.1 µM (≈ 45.4 µg/mL)

SMILES: CSCC[C@H](NC(=O)[C@H](CCCCN)NC(=O)[C@H](CCCCN)NC(=O)[C@H](CC(N)=O)NC(=O)[C@H](CCCN=C(N)N)NC(=O)[C@H](CS)NC(=O)[C@H](CCCCN)NC(=O)[C@@H](N)CCCCN)C(=O)N[C@@H](CCC(=O)O)C(=O)N[C@H](C(=O)N[C@@H](CO)C(=O)N[C@@H](CCCN=C(N)N)C(N)=O)C(C)C [KKCRNKKMEVSR]
- MIC [4]: 39.8 µM (≈ 60 µg/mL)
- MIC [5]: 16.6 µM (≈ 25 µg/mL)
- MIC [6]: 26.5 µM (≈ 40 µg/mL)
- MIC [7]: 26.5 µM (≈ 40 µg/mL)
- MIC [8]: 19.9 µM (≈ 30 µg/mL)

SMILES: CC[C@H](C)[C@H](NC(=O)[C@H](CCSC)NC(C)=O)C(=O)N[C@@H](Cc1cnc[nH]1)C(=O)NCC(=O)N[C@@H](CC(C)C)C(=O)N[C@H](C(=O)N[C@H](C(=O)N[C@@H](CCCN=C(N)N)C(=O)N[C@@H](CCCN=C(N)N)C(N)=O)[C@@H](C)O)C(C)C [MIHGLVTRR]
- MIC [9]: ≥ 92.4 µM
- MIC [10]: ≥ 92.4 µM

SMILES: CC[C@H](C)[C@H](NC(=O)[C@H](CC(C)C)NC(=O)[C@H](CCC(=O)O)NC(=O)[C@H](CO)NC(=O)[C@H](CCCN=C(N)N)NC(=O)[C@@H](N)CO)C(=O)N[C@H](C(=O)N[C@@H](Cc1cnc[nH]1)C(=O)N[C@@H](CCC(N)=O)C(=O)N[C@@H](CCCN=C(N)N)C(=O)N[C@@H](CCCN=C(N)N)C(=O)N[C@@H](CS)C(N)=O)C(C)C [SRSELIVHQRRC]
- MIC (Candida parapsilosis): ≥ 173 µM
- MIC (Candida albicans 01U): ≥ 86.3 µM
- MIC [11]: ≥ 173 µM
- MIC [12]: ≥ 173 µM
- MIC (Trichophyton rubrum): ≥ 86.3 µM
- MIC [13]: ≥ 173 µM
- MIC (Candida albicans 38U): ≥ 43.1 µM

SMILES: CC[C@H](C)[C@H](N)C(=O)N[C@@H](CCCCN)C(=O)N[C@@H](CCCCN)C(=O)N[C@@H](Cc1c[nH]c2ccccc12)C(=O)N[C@@H](Cc1c[nH]c2ccccc12)C(=O)N[C@@H](CO)C(=O)N[C@@H](CCCCN)C(=O)N[C@H](C(=O)N[C@@H](CCCCN)C(=O)N[C@@H](CCCCN)C(=O)N[C@@H](CC(C)C)C(=O)N[C@@H](CC(C)C)C(=O)N[C@@H](CCCCN)C(N)=O)[C@@H](C)CC [IKKWWSKIKKLLK]
- MIC [14]: 3.13 µM (≈ 5.32 µg/mL)
- MIC [15]: 0.78 µM (≈ 1.32 µg/mL)
- MIC [16]: 25 µM (≈ 42.5 µg/mL)
- MIC (Bacillus cereus AS1.126): 3.13 µM (≈ 5.32 µg/mL)
- MIC [17]: 1.56 µM (≈ 2.65 µg/mL)
- MIC (Escherichia coli AS1.349): 3.13 µM (≈ 5.32 µg/mL)
- MIC [18]: 1.56 µM (≈ 2.65 µg/mL)
- MIC [19]: 3.12 µM (≈ 5.3 µg/mL)
- MIC [20]: 12.5 µM (≈ 21.2 µg/mL)
- MIC [21]: 6.25 µM (≈ 10.6 µg/mL)
- MIC [22]: 1.56 µM (≈ 2.65 µg/mL)
- MIC [23]: 0.78 µM (≈ 1.32 µg/mL)

SMILES: CC[C@H](C)[C@H](NC(=O)[C@@H](NC(=O)[C@H](CCCCN)NC(=O)[C@H](CCCCN)NC(=O)[C@H](CC(C)C)NC(=O)[C@@H](NC(=O)[C@H](CC(N)=O)NC(=O)[C@H](CC(C)C)NC(=O)CN)[C@@H](C)O)C(C)C)C(=O)N[C@@H](CCC(N)=O)C(=O)NCC(=O)N[C@@H](CC(C)C)C(=O)N[C@@H](Cc1cnc[nH]1)C(=O)N[C@@H](CCC(=O)O)C(=O)N[C@H](C(=O)N[C@H](C(=O)N[C@@H](CCCCN)C(=O)N[C@@H](CC(C)C)C(=O)N[C@H](C(=O)N[C@@H](CC(N)=O)C(=O)N[C@@H](CC(N)=O)C(=O)N[C@@H](Cc1cnc[nH]1)C(=O)N[C@@H](C)C(N)=O)C(C)C)[C@@H](C)CC)C(C)C [GLNTLKKVIQGLHEVIKLVNNHA]
- MIC [4]: 50 µM (≈ 127 µg/mL)
- MIC [24]: 2 µM (≈ 5.08 µg/mL)
- MIC [25]: 6 µM (≈ 15.2 µg/mL)
- MIC [7]: 6 µM (≈ 15.2 µg/mL)

SMILES: CC(C)C[C@H](NC(=O)[C@H](CCCN=C(N)N)NC(=O)[C@H](CC(C)C)NC(=O)[C@H](CC(C)C)NC(=O)[C@H](CC(C)C)NC(=O)[C@H](CC(C)C)NC(=O)[C@H](CC(C)C)NC(=O)[C@H](CCCCN)NC(=O)[C@H](CC(C)C)NC(=O)[C@@H](N)CCCN=C(N)N)C(N)=O [RLKLLLLLRL]
- MIC [26]: 6.4 µM (≈ 7.99 µg/mL)

SMILES: CC[C@H](C)[C@H](NC(=O)[C@H](CC(C)C)NC(=O)[C@@H]1CCCN1C(=O)[C@H](CC(C)C)NC(=O)[C@@H](N)Cc1ccccc1)C(=O)N[C@@H](CC(C)C)C(=O)N1CCC[C@H]1C(=O)N[C@@H](CO)C(=O)N[C@H](C(=O)N[C@H](C(=O)N[C@H](C(=O)N[C@@H](C)C(=O)N[C@@H](CC(C)C)C(=O)N[C@@H](CO)C(=O)N[C@@H](CO)C(=O)N[C@@H](Cc1ccccc1)C(=O)N[C@@H](CC(C)C)C(=O)N[C@@H](CCCCN)C(=O)N[C@@H](CCC(N)=O)C(=O)NCC(=O)O)[C@@H](C)O)C(C)C)[C@@H](C)CC [FLPLILPSIVTALSSFLKQG]
- MIC [27]: ≥ 46.6 µM
- MIC [28]: 23.3 µM (≈ 50 µg/mL)
- MIC [29]: 11.7 µM (≈ 25.1 µg/mL)
- MIC [30]: 23.3 µM (≈ 50 µg/mL)

SMILES: CC[C@H](C)[C@H](NC(=O)[C@@H]1CCCN1C(=O)[C@H](CC(C)C)NC(=O)[C@@H](N)CC(C)C)C(=O)N[C@H](C(=O)NCC(=O)N[C@@H](CC(N)=O)C(=O)N[C@@H](CC(C)C)C(=O)N[C@@H](CC(C)C)C(=O)N[C@@H](CCCCN)C(=O)N[C@@H](CO)C(=O)N[C@@H](CC(C)C)C(=O)N[C@@H](CC(C)C)C(=O)NCC(=O)N[C@@H](Cc1c[nH]c2ccccc12)C(=O)N[C@@H](CCCCN)C(=O)N[C@@H](CCCN=C(N)N)C(=O)N[C@@H](CCCCN)C(=O)N[C@@H](C)C(=O)N[C@@H](Cc1ccccc1)C(=O)NCC(N)=O)C(C)C [LLPIVGNLLKSLLGWKRKAFG]
- MIC [31]: > 200 µM
- MIC [4]: 200 µM (≈ 465 µg/mL)
- MIC [5]: 50 µM (≈ 116 µg/mL)
- MIC [32]: ≥ 100 µM
- MIC (Bacillus subtilis): ≥ 50 µM
- MIC [33]: 100 µM (≈ 232 µg/mL)
- MIC (Escherichia coli): 100 µM (≈ 232 µg/mL)
- MIC [8]: ≥ 200 µM
